Tested on: Zucker Diabetic Fatty rat (ZDF)
Experiment: In vivo preventive study of renal function in the Zucker Diabetic Fatty rat model of diabetic nephropathy
Source text: The compound 1,3 Propanedisulfonic Acid Disodium Salt (PDS) was selected for a preventive study of renal function in the Zucker rat (ZDF) mode.
A leading study model for DN is the inbred Zucker Diabetic Fatty rat (ZDF). Given a diabetogenic diet, the ZDF rat will closely mimic human adult onset diabetes (Type 2) and related complications including glomerulosclerosis and renal damage earlier than when fed a normal diet (i.e. 14-18 weeks of age). In addition, obesity, mild hypertension, hypertriglyceridemia, hypercholesterolemia, fasting hyperglycemia, impaired glucose tolerance and hyperinsulinemia, are all major phenotypes featured in the ZDF rat.
This pre-clinical investigation evaluates the role and efficacy of 1,3 Propanedisulfonic Acid Disodium Salt (PDS) (Eprodisate Disodium) as a preventive treatment for DN and related pathophysiology in the ZDF rat model. The primary measured outcome is the attenuation/reversal of creatinine clearance deterioration and of proteinuria. The secondary measured outcome is the impact on the metabolic status in this model.
Thirty-two, 6 week-old male ZDF rats (Charles River, St. Constant, Canada) were randomized in 2 groups, Treated (PDS; in 1% sucrose drinking solution) and Control (1% sucrose drinking solution), and studied for a period of 8 weeks. […] All rats were fed a high sucrose/high fat diabetogenic diet (Harlan™ TD95217). Body weight, food and drinking solution consumption were measured on a daily basis. Twelve rats from each group were individually housed in metabolic cages for a period of 24 hours once a week. During week 2, 3, 4 and 5, rats placed in metabolic cages received drinking solution but were placed in fasting condition, whereas during weeks 1, […], 6, 7, and 8, rats were given ad libitum access to food and drinking solution. At the end of each metabolic cage session, urine output was measured, and blood and urine samples were collected in order to quantify serum and/or urine levels of PDS, creatinine, protein, uric acid, triglycerides, glucose, and electrolytes. These variables were used to calculate creatinine clearance (CCr) and proteinuria, and to evaluate general metabolic and renal health status.
Results for each time point are represented as mean±SE. Trend statistics are calculated by repeated measures ANOVA, with p<0.02 considered statistically significant.

[1] = preliminary evaluation, rats sacrificed at about 9 weeks of treatment, not shown

## O=S(=O)([O-])CCCS(=O)(=O)[O-].[Na+].[Na+] [PDS, 1,3 Propanedisulfonic Acid Disodium Salt]
ZDF rats, summary statement of the study
  uric acid serum levels: reduction of uric acid serum levels
Male ZDF rats, PDS in 1% sucrose drinking solution, adjusted higher dose, satient condition
  tolerability: well tolerated
Male ZDF rats, satient condition, after 8 weeks of treatment, p=0.0067, FIGS. 3A and 3B
  serum triglyceride levels versus Control animals: reduced serum triglyceride levels
Male ZDF rats, satient condition, after 8 weeks of treatment, p=0.012, FIGS. 2A and 2B
  degree of decline of creatinine clearance normalized over body weight (CCr/BW) versus Control animals: significantly lowered the degree of decline
Male ZDF rats, satient condition, over 8 weeks, FIG. 4A
  uric acid clearance, effect of treatment over the study: trend in the positive effect
Male ZDF rats, satient condition, week 8, FIG. 4B
  uric acid clearance compared to the control group at week 8: significant difference compared to the control group
[1]
  kidney mass versus control rats: greater kidney mass than control rats
  mass of the heart ventricles versus control rats: slightly lower ventricular mass

Reference: US8372886B2, “Treatment of renal disorders, diabetic nephropathy and dyslipidemias” (Kiacta Sarl, priority 2005, dated 2013)
